According to patent publication US8697390B2, “Method and kit for examination of cells using N-(9-acridinyl) maleimide (NAM) or using 7-diethylamino-3-((4′-iodacetyl)amino)phenyl)-4-methylkcoumarin (CPI)” (ChemoMetec A/S, priority 2008, dated 2014):

Key:
HEK293 cells = test: NAM/PI staining to determine viability of outgrown HEK293 cells (fluorescence microscopy); type: cell-based, human
Method: HEK293 cells were grown at 37° C. in a humidified air atmosphere with 5% CO2 in DMEM (Invitrogen, #31966) supplemented with 10% heat-inactivated fetal bovine serum (Invitrogen, #10108-165). Cells were harvested with 0.5 mL of trypsin (Invitrogen, #25300) and neutralized with 5 mL medium (DMEM+10% FCS) two days after they had reached full confluency. These outgrown HEK293 cells (cell density 1.6×10^6, 78% viable determined using the NC-100 NucleoCounter system following the manufacturer's (ChemoMetec) protocol) were stained with 10 μg/mL NAM (Sigma, #01665). Another cell sample were treated with 0.25% Triton X-100 (Sigma, #T9284) and hereafter added 10 μg/mL NAM. After staining, each cell sample was loaded into a NucleoCassette, containing the DNA stain propidium iodide (PI). The cells were investigated using an Olympus IX50 fluorescent microscope, and images were captured using a Lumenera CCD camera and in-house developed software. PI and NAM fluorescence were detected using, respectively, U-MWG2 (green long pass: 510-550 nm) and U-MNUA2 (UV band pass, 330-385 nm) filter cubes (Olympus).

bone marrow cells = test: NAM/PI staining to determine viability of bone marrow derived cells; type: cell-based, murine; conditions: 93% viable, 10 μL NAM (100 μg/mL DMSO) in 90 μL cells
Method: The bone marrow cells were harvested aseptically in the laminar flow hood. Briefly, bilateral tibia and femur were aseptically removed, freed of surrounding soft tissue, and placed in a petri dish with 10 mL 70% ethanol. After 2 minutes they were transferred to ice cold PBS. The bone marrow cavity was then flushed with 5 ml cold PBS using a 5-ml syringe with a 27-gauge needle attached, and the cells were collected from each bone. The cells were centrifuged at 300 g for 10 min, the supernatant was discarded, and cells were washed twice. After the second wash the cell pellet was resuspended in RPMI 1640 (Invitrogen, #61870) supplemented with 10% heat-inactivated fetal bovine serum (Invitrogen, #10108-165), 100 U/mL penicillin and 100 μg/mL streptomycin (Invitrogen, #15140-122). 90 μL bone marrow cells (cell density 1.7×10^6, 93% viable determined using the NC-100 NucleoCounter system following the manufacturer's (ChemoMetec A/S) protocol) were added 10 μL NAM (N-(9-acridinyl)maleimide, Sigma, #01665, CAS no. 49759-20-8) dissolved in DMSO (100 μg NAM pr. mL DMSO) and mixed by pipetting. Cells were loaded into a NucleoCassette, containing the DNA stain propidium iodide (PI). […] PI and NAM fluorescence were detected using, respectively, U-MWG2 (green long pass: 510-550 nm) and U-MNUA2 (UV band pass, 330-385 nm) filter cubes (Olympus).

[1] = tested on: primary murine splenocytes; test: NAM/PI staining to determine viability of primary murine splenocytes; type: cell-based, C57BL/6 mouse; conditions: 90% viable, 10 μL NAM (100 μg/mL DMSO) in 90 μL cells
Method: The spleen from a C57BL/6 mouse was placed in ice-cold PBS and gently ground using the end of a sterile syringe. The suspension was centrifuged at 300 g for 10 minutes; the pellet was resuspended in 1 mL 0.83% NH4Cl to lyse erythrocytes and incubated for 3 minutes on ice. The cells were then added 14 mL PBS and centrifuged at 300 g for 10 minutes. The splenocytes were resuspended in RPMI (Invitrogen, #61870) supplemented with 10% heat-inactivated fetal bovine serum (Invitrogen, #10108-165), 100 U/mL penicillin and 100 μg/mL streptomycin (Invitrogen, #15140-122). The cell clumps were allowed to sediment and were removed by pipetting, and the resulting single cell suspension was used. 90 μL splenocytes (cell density 1.7×10^6, 90% viable determined using the NC-100 NucleoCounter system following the manufacturer's (ChemoMetec A/S) protocol) were added 10 μL NAM (N-(9-acridinyl)maleimide, Sigma, #01665, CAS no. 49759-20-8) dissolved in DMSO (100 μg NAM pr. mL DMSO) and mixed by pipetting. Cells were loaded into a NucleoCassette, containing the DNA stain propidium iodide (PI). The cells were investigated using an Olympus IX50 fluorescence microscope, and images were captured using a Lumenera CCD camera and in-house developed software. PI and NAM fluorescence were detected using, respectively, U-MWG2 (green long pass: 510-550 nm) and U-MNUA2 (UV band pass, 330-385 nm) filter cubes (Olympus).

Q: How did the “staining of Triton X-100 treated cells” value (HEK293 cells; HEK293 cells treated with 0.25% Triton X-100, then 10 μg/mL NAM, PI from NucleoCassette) turn out when `O=C1C=CC(=O)N1c1c2ccccc2nc2ccccc12` [NAM, N-(9-acridinyl)maleimide] was run?
A: NAM negative

Q: And the “staining of cells by NAM versus PI” value (HEK293 cells; outgrown HEK293 cells, 78% viable, 10 μg/mL NAM)?
A: NAM and PI were found to complementary stain the outgrown HEK293 cells

Q: And the “staining of cells by NAM versus PI” value (bone marrow cells)?
A: nearly all the primary bone marrow cells were stained by NAM; again only exception were PI positive cells

Q: And the “staining of cells by NAM versus PI” value [1]?
A: nearly all the primary spleen cells were stained by NAM; only exception were PI positive cells
